According to ChEMBL document CHEMBL3885861, “Open TG-GATES”:

Species: Rattus norvegicus
Assay: Open TG-GATES - Regimen: Single
Type: toxicity, organism-based, Sprague-Dawley
Parameters: regimen Single, gender Male, age 6 weeks
Conditions: in vivo, po, 5 mg/kg, route gavage, dose level Middle; for Bas / Eos / Fbg / Hb / Ht / Lym / MCHC / MCV / Mono / Neu / Plat / RBC / Ret / WBC: tissue Blood; for KIDNEY_TOTAL: tissue Kidney; for LIVER: tissue Liver; for ALT / AST / BUN / CRE / Ca / Cl / DBIL / GLC / IP / K / LDH / Na / PL / RALB / TBIL / TC / TP / gamma-GTP: tissue Plasma

C[C@@H]1C[C@H]2[C@@H]3CCC4=CC(=O)C=C[C@]4(C)[C@@]3(F)[C@@H](O)C[C@]2(C)[C@@]1(O)C(=O)CO [DEXAMETHASONE]
TERMINAL_BW (3 h): 210 g
Bas (3 h): 0%
Eos (3 h): 0.6%
Fbg (3 h): 235.2 mg/dL
Hb (3 h): 13.2 g/dL
Ht (3 h): 40.3%
Lym (3 h): 71.4%
MCHC (3 h): 32.8%
MCV (3 h): 65 fL
Mono (3 h): 2.4%
Neu (3 h): 25.6%
Plat (3 h): 121.2 x10_4/uL
RBC (3 h): 620.6 x10_4/ul
Ret (3 h): 9.6%
WBC (3 h): 46.5 x10_2/uL
KIDNEY_TOTAL (3 h): 0.6 g
LIVER (3 h): 10.6 g
ALT (3 h): 41 IU/L
AST (3 h): 77.8 IU/L
BUN (3 h): 15 mg/dL
CRE (3 h): 0.4 mg/dL
Ca (3 h): 11.4 mg/dL
Cl (3 h): 101.8 meq/L
DBIL (3 h): 0.014 mg/dL
GLC (3 h): 193.4 mg/dL
IP (3 h): 11.9 mg/dL
K (3 h): 4.1 meq/L
LDH (3 h): 103.8 IU/L
Na (3 h): 141.2 meq/L
PL (3 h): 157.4 mg/dL
RALB (3 h): 4.2 g/dL
TBIL (3 h): 0.046 mg/dL
TC (3 h): 91.2 mg/dL
TP (3 h): 6 g/dL
gamma-GTP (3 h): 0.4 IU/L
TERMINAL_BW (6 h): 205.5 g
Bas (6 h): 0%
Eos (6 h): 0.6%
Fbg (6 h): 243.6 mg/dL
Hb (6 h): 12.9 g/dL
Ht (6 h): 39.2%
Lym (6 h): 59.4%
MCHC (6 h): 32.8%
MCV (6 h): 64.4 fL
Mono (6 h): 3.6%
Neu (6 h): 36.6%
Plat (6 h): 129.5 x10_4/uL
RBC (6 h): 609.4 x10_4/ul
Ret (6 h): 6.7%
WBC (6 h): 27.3 x10_2/uL
KIDNEY_TOTAL (6 h): 0.6 g
LIVER (6 h): 11.2 g
ALT (6 h): 39.8 IU/L
AST (6 h): 82.6 IU/L
BUN (6 h): 17.2 mg/dL
CRE (6 h): 0.4 mg/dL
Ca (6 h): 11.6 mg/dL
Cl (6 h): 103.2 meq/L
DBIL (6 h): 0.01 mg/dL
GLC (6 h): 223.8 mg/dL
IP (6 h): 7.7 mg/dL
K (6 h): 4.1 meq/L
LDH (6 h): 84.4 IU/L
Na (6 h): 138.8 meq/L
PL (6 h): 153.6 mg/dL
RALB (6 h): 4.5 g/dL
TBIL (6 h): 0.036 mg/dL
TC (6 h): 101.4 mg/dL
TP (6 h): 6.3 g/dL
gamma-GTP (6 h): 0 IU/L
TERMINAL_BW (9 h): 199.5 g
Bas (9 h): 0%
Eos (9 h): 0.2%
Fbg (9 h): 246 mg/dL
Hb (9 h): 13.6 g/dL
Ht (9 h): 41.5%
Lym (9 h): 37%
MCHC (9 h): 32.7%
MCV (9 h): 64.4 fL
Mono (9 h): 1.4%
Neu (9 h): 61.2%
Plat (9 h): 122.1 x10_4/uL
RBC (9 h): 645.2 x10_4/ul
Ret (9 h): 6%
WBC (9 h): 18.2 x10_2/uL
KIDNEY_TOTAL (9 h): 0.4 g
LIVER (9 h): 10.8 g
ALT (9 h): 39.4 IU/L
AST (9 h): 76.8 IU/L
BUN (9 h): 19.4 mg/dL
CRE (9 h): 0.4 mg/dL
Ca (9 h): 10.9 mg/dL
Cl (9 h): 102 meq/L
DBIL (9 h): 0.008 mg/dL
GLC (9 h): 226 mg/dL
IP (9 h): 7.2 mg/dL
K (9 h): 3.9 meq/L
LDH (9 h): 104.4 IU/L
Na (9 h): 138.6 meq/L
PL (9 h): 179.4 mg/dL
RALB (9 h): 4.6 g/dL
TBIL (9 h): 0.032 mg/dL
TC (9 h): 118 mg/dL
TP (9 h): 6.7 g/dL
gamma-GTP (9 h): 0.8 IU/L
TERMINAL_BW (24 h): 208.2 g
Bas (24 h): 0%
Eos (24 h): 1%
Fbg (24 h): 232.4 mg/dL
Hb (24 h): 13.4 g/dL
Ht (24 h): 40.4%
Lym (24 h): 46.8%
MCHC (24 h): 33.1%
MCV (24 h): 63.3 fL
Mono (24 h): 9.2%
Neu (24 h): 43.2%
Plat (24 h): 136.7 x10_4/uL
RBC (24 h): 638.4 x10_4/ul
Ret (24 h): 5.4%
WBC (24 h): 47.5 x10_2/uL
KIDNEY_TOTAL (24 h): 0.4 g
LIVER (24 h): 13.2 g
ALT (24 h): 37.2 IU/L
AST (24 h): 83.4 IU/L
BUN (24 h): 17.6 mg/dL
CRE (24 h): 0.4 mg/dL
Ca (24 h): 11.4 mg/dL
Cl (24 h): 99.4 meq/L
DBIL (24 h): 0.022 mg/dL
GLC (24 h): 205 mg/dL
IP (24 h): 6.8 mg/dL
K (24 h): 5.1 meq/L
LDH (24 h): 96 IU/L
Na (24 h): 137.8 meq/L
PL (24 h): 249.2 mg/dL
RALB (24 h): 4.8 g/dL
TBIL (24 h): 0.044 mg/dL
TC (24 h): 119.2 mg/dL
TP (24 h): 6.8 g/dL
